Experimental data reported in patent US11149037B2, “Pyrazole MAGL inhibitors” (H. Lundbeck A/S, priority 2017, dated 2021).

Legend:
Format in all cases: biochemical
[1] = molecular target: FAAH (Homo sapiens (Human), UniProt O00519); assay: In vitro competitive activity-based protein profiling, human proteomes (prefrontal cortex or PC3 cell membrane fractions); settings: human proteome; for inhibition at 1 µM: read-out: FAAH % inh. 1 μM (human)
In short: (§1)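 Activity of MAGL and FAAH was quantified from fluorescent gel band intensities. Beforehand, inhibitors at several concentrations competed against subsequent probe labelling (FP-Rh, JW912 or HT-01) in species-matched proteomes, each step 30 min at 37° C.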

[2] = molecular target: MAGL (Homo sapiens (Human), UniProt Q99685); assay: as above; settings: human proteome; for inhibition at 1 µM: read-out: MAGL % inh. 1 μM (human)
In short: as §1

[3] = molecular target: FAAH (Mus musculus (Mouse), UniProt O08914); assay: In vitro competitive activity-based protein profiling, mouse proteomes (brain membrane fraction or cell lysates); settings: mouse proteome, read-out: FAAH % inh. 1 μM (mouse)
In short: as §1

[4] = molecular target: MAGL (Mus musculus (Mouse), UniProt O35678); assay: as above; settings: mouse proteome, read-out: MAGL % inh. 1 μM (mouse)
In short: as §1

FAAH (Homo sapiens (Human), UniProt O00519), sequence (O00519 whole entry): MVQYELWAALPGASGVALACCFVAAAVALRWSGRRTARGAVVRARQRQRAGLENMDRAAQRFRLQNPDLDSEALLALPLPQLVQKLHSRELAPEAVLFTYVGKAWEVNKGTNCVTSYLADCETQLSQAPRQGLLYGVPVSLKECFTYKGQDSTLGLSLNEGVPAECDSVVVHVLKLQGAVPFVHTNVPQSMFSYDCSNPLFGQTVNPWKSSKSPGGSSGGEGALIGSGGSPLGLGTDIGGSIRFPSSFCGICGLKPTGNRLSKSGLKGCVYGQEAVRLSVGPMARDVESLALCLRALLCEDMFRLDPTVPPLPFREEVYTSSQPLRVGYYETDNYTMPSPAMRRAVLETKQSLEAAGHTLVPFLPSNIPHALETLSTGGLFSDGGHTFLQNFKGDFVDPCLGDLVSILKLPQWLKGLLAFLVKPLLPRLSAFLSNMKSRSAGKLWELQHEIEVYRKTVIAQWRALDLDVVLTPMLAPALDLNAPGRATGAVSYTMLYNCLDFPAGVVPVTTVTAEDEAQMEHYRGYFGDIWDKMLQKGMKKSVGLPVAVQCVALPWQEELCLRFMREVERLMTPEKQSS
MAGL (Homo sapiens (Human), UniProt Q99685), sequence (Q99685 whole entry): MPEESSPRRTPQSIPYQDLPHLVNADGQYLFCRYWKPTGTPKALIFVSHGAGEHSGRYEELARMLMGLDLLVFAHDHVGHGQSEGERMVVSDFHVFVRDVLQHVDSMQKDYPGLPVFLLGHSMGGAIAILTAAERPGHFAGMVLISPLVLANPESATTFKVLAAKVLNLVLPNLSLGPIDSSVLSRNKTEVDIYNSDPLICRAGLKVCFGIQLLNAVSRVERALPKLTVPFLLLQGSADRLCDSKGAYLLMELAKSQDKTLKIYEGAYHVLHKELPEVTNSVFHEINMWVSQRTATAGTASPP
FAAH (Mus musculus (Mouse), UniProt O08914), sequence (O08914 whole entry): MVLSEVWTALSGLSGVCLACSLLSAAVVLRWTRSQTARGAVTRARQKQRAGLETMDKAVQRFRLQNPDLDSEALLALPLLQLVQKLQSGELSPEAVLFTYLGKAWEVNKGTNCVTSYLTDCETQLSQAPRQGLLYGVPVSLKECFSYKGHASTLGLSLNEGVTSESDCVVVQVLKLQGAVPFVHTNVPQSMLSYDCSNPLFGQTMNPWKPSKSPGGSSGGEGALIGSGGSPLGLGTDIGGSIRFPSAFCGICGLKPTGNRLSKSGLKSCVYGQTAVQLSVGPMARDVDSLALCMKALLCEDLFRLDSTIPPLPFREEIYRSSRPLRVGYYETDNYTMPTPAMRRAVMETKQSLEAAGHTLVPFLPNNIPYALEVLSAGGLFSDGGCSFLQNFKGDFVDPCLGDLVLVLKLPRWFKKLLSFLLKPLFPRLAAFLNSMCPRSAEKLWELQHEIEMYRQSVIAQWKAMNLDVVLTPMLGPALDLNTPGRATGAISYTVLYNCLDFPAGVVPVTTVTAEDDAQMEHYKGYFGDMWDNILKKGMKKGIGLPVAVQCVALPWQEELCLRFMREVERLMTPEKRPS
MAGL (Mus musculus (Mouse), UniProt O35678), sequence (O35678 whole entry): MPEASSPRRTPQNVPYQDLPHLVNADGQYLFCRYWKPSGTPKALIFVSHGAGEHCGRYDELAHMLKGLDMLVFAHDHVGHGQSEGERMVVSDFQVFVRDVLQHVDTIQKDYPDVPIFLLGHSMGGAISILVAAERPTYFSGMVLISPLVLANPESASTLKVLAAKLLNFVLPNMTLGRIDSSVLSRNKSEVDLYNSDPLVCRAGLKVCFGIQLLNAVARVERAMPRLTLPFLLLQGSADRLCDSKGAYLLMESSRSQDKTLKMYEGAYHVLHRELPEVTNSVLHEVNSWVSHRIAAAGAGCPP

SMILES | inhibition at 1 µM [1] [%] | inhibition at 1 µM [2] [%] | inhibition at 1 µM [3] [%] | inhibition at 1 µM [4] [%] | inhibition at 10 µM ([2]; 10 μM, read-out: MAGL % inh. (human) @ 10 μM) [%] | IC50 [1] [µM] | IC50 [2] [µM]
Cc1nc(Cl)ccc1CN1CCN(C(=O)n2ccc(NS(C)(=O)=O)n2)CC1 [Example 61, N-(1-(4-((6-Chloro-2-methylpyridin-3-yl)methyl)piperazine-1-carbonyl)-1H-pyrazol-3-yl)methanesulfonamide] | 0 to 25 | 25 to 50 | 0 to 25 | 50 to 75 | – | – | –
CS(=O)(=O)Nc1ccn(C(=O)N2CCC3(CCN(Cc4ccc(C(F)(F)F)cc4N4CCOCC4)C3)CC2)n1 [Example 62, N-(1-(2-(2-Morpholino-4-(trifluoromethyl)benzyl)-2,8-diazaspiro[4.5]decane-8-carbonyl)-1H-pyrazol-3-yl)methanesulfonamide] | 0 to 25 | > 75 | 0 to 25 | > 75 | – | – | –
CS(=O)(=O)Nc1ccn(C(=O)N2CCC3(CCN(Cc4cc(N5CCCC5)cc(C(F)(F)F)c4)C3)CC2)n1 [Example 64, N-(1-(2-(3-(Pyrrolidin-1-yl)-5-(trifluoromethyl)benzyl)-2,8-diazaspiro[4.5]decane-8-carbonyl)-1H-pyrazol-3-yl)methanesulfonamide] | 0 to 25 | > 75 | 0 to 25 | > 75 | – | – | –
Cc1c(CN2CCN(C(=O)n3ccc(NS(C)(=O)=O)n3)CC2)[nH]c2c(Cl)cccc12 [Example 65, N-(1-(4-((7-Chloro-3-methyl-1H-indol-2-yl)methyl)piperazine-1-carbonyl)-1H-pyrazol-3-yl)methanesulfonamide] | 0 to 25 | > 75 | 0 to 25 | > 75 | – | – | –
CS(=O)(=O)Nc1ccn(C(=O)N2CCN(Cc3cc4cc(Cl)ccc4s3)CC2)n1 [Example 66, N-(1-(4-((5-Chlorobenzo[b]thiophen-2-yl)methyl)piperazine-1-carbonyl)-1H-pyrazol-3-yl)methanesulfonamide] | 0 to 25 | > 75 | 0 to 25 | > 75 | – | – | –
CS(=O)(=O)Nc1ccn(C(=O)N2CCN(Cc3cc4c(Cl)cccc4s3)CC2)n1 [Example 67, N-(1-(4-((4-Chlorobenzo[b]thiophen-2-yl)methyl)piperazine-1-carbonyl)-1H-pyrazol-3-yl)methanesulfonamide] | 25 to 50 | > 75 | 25 to 50 | > 75 | – | – | –
CS(=O)(=O)Nc1ccn(C(=O)N2CCC3(CCN(Cc4cc(Cl)cc(N5CCCC5)c4)C3)CC2)n1 [Example 68, N-(1-(2-(3-Chloro-5-(pyrrolidin-1-yl)benzyl)-2,8-diazaspiro[4.5]decane-8-carbonyl)-1H-pyrazol-3-yl)methanesulfonamide] | 0 to 25 | > 75 | 0 to 25 | > 75 | – | – | –
C#Cc1ccc(CN2CCN(C(=O)n3ccc(NS(C)(=O)=O)n3)CC2)cc1 [Example 69, N-(1-(4-(4-Ethynylbenzyl)piperazine-1-carbonyl)-1H-pyrazol-3-yl)methanesulfonamide] | 0 to 25 | – | 0 to 25 | 0 to 25 | > 75 | – | –
CS(=O)(=O)Nc1ccn(C(=O)N2CCN(Cc3sc4ccccc4c3Cl)CC2)n1 [Example 70, N-(1-(4-((3-Chlorobenzo[b]thiophen-2-yl)methyl)piperazine-1-carbonyl)-1H-pyrazol-3-yl)methanesulfonamide] | 0 to 25 | > 75 | 0 to 25 | > 75 | – | – | –
CS(=O)(=O)Nc1ccn(C(=O)N2CCC3(CCN(Cc4ccc(N5CCCC5)c(C(F)(F)F)c4)C3)CC2)n1 [Example 72, N-(1-(2-(4-(Pyrrolidin-1-yl)-3-(trifluoromethyl)benzyl)-2,8-diazaspiro[4.5]decane-8-carbonyl)-1H-pyrazol-3-yl)methanesulfonamide] | 0 to 25 | > 75 | 50 to 75 | 25 to 50 | – | – | –
CS(=O)(=O)Nc1ccn(C(=O)N2CCC3(CCN(Cc4ccc(C(F)(F)F)c(N5CCCC5)c4)C3)CC2)n1 [Example 73, N-(1-(2-(3-(Pyrrolidin-1-yl)-4-(trifluoromethyl)benzyl)-2,8-diazaspiro[4.5]decane-8-carbonyl)-1H-pyrazol-3-yl)methanesulfonamide] | 0 to 25 | > 75 | 50 to 75 | > 75 | – | – | –
CS(=O)(=O)Nc1ccn(C(=O)N2CCC3(CCN(Cc4ccc(C(F)(F)F)cc4N4C5CCC4COC5)C3)CC2)n1 [Example 74, N-(1-(2-(2-(3-Oxa-8-azabicyclo[3.2.1]octan-8-yl)-4-(trifluoromethyl)benzyl)-2,8-diazaspiro[4.5]decane-8-carbonyl)-1H-pyrazol-3-yl)methanesulfonamide] | 0 to 25 | > 75 | 0 to 25 | > 75 | – | 1 to 10 | < 0.1
CS(=O)(=O)Nc1ccn(C(=O)N2CCN(Cc3ccc(C(F)(F)F)cc3NCCC(=O)O)CC2)n1 [Example 77, 3-((2-((4-(3-(Methylsulfonamido)-1H-pyrazole-1-carbonyl)piperazin-1-yl)methyl)-5-(trifluoromethyl)phenyl)amino)propanoic acid] | 0 to 25 | 50 to 75 | 0 to 25 | 0 to 25 | – | – | –
CS(=O)(=O)Nc1ccn(C(=O)N2CC3CN(Cc4ccc(C(F)(F)F)cc4NCCCC(=O)O)CC3C2)n1 (centres unmarked) [Example 78, 4-((2-((5-(3-(Methylsulfonamido)-1H-pyrazole-1-carbonyl)hexahydropyrrolo[3,4-c]pyrrol-2(1H)-yl)methyl)-5-(trifluoromethyl)phenyl)amino)butanoic acid] | 0 to 25 | > 75 | 0 to 25 | > 75 | – | – | –
CS(=O)(=O)Nc1ccn(C(=O)N2CCN(Cc3cccnc3N3CCCC3)CC2)n1 [Example 81, N-(1-(4-((2-(Pyrrolidin-1-yl)pyridin-3-yl)methyl)piperazine-1-carbonyl)-1H-pyrazol-3-yl)methanesulfonamide] | 0 to 25 | > 75 | 0 to 25 | 50 to 75 | – | – | –
CS(=O)(=O)Nc1ccn(C(=O)N2CCN(Cc3ccncc3N3CCCC3)CC2)n1 [Example 82, N-(1-(4-((3-(Pyrrolidin-1-yl)pyridin-4-yl)methyl)piperazine-1-carbonyl)-1H-pyrazol-3-yl)methanesulfonamide] | 0 to 25 | > 75 | 0 to 25 | 50 to 75 | – | – | –
Cc1cc(CN2CCCC23CCN(C(=O)n2ccc(NC(=O)C4CC4)n2)CC3)ccc1Cl [Example 83, N-(1-(1-(4-Chloro-3-methylbenzyl)-1,8-diazaspiro[4.5]decane-8-carbonyl)-1H-pyrazol-3-yl)cyclopropanecarboxamide] | 0 to 25 | > 75 | 0 to 25 | > 75 | – | – | –
CC(=O)Nc1ccn(C(=O)N2CCC3(CCCN3C(=O)c3ccc(Cl)c(C)c3)CC2)n1 [Example 84, N-(1-(1-(4-Chloro-3-methylbenzoyl)-1,8-diazaspiro[4.5]decane-8-carbonyl)-1H-pyrazol-3-yl)acetamide] | 0 to 25 | > 75 | 0 to 25 | > 75 | – | – | –
